Results taken from article PMC11842024, “Reversible male contraception by targeted inhibition of serine/threonine kinase 33” (Science (New York, N.Y.), 2024).

What was measured:
CLK1 = CLK1 (Homo sapiens, UniProt P49759); assay: NanoBRET target engagement intracellular kinase assay; format: cell-based; parameters: host or cells: HEK293 (HEK293T cultured)
Protocol: (§1) NanoBRET Target Engagement intracellular kinase assay. HEK293T cells were cultured in […]
(§2) The cell line underwent authentication by short tandem repeat (STR) profiling at Cytogenetics and Cell Authentication Core (CCAC) at MD Anderson Cancer Center. NanoBRET Target Engagement intracellular kinase assay, K-10 assay (Cat. # N2641), K-9 assay (Cat. # N2631), transfection reagent FuGENE HD (Cat. # E2311), transfection carrier DNA (Cat. # E4881), NanoLuc-STK33 fusion vector (Cat. # NV2111), NanoLuc-RET fusion vector (Cat. # NV1951), NanoLuc-CLK1 fusion vector (Cat. # NV1131), NanoLuc-CLK2 fusion vector (Cat. # NV1141), and NanoLuc-CLK4 fusion vector (Cat. # NV1151) were purchased from Promega. The measurement of test compound engagement with cellular target protein was performed in a 384-well format according to manufacturer’s instructions. HEK293 cells were transiently transfected with NanoLuc (STK33, RET, CLK1, CLK2, and CLK4) fusion vectors. After 36 hours of transfection, cells were treated with a fixed concentration of tracer (recommended by Promega) followed by compounds (inhibitors) for 2 hours of incubation. To determine the test compound […]
(§3) 0.4 nM at a fixed tracer concentration. Staurosporine was measured in parallel as a positive control.
(§4) Freshly prepared NanoBRET Nano-Glo substrate plus extracellular NanoLuc inhibitor was then added to initiate the subsequent bioluminescence resonance energy transfer (BRET) measurements using a CLARIOstar Plus BMG LABTECH plate reader. Data analysis was done by measuring the ratio of acceptor emission to donor emission (BRET ratio) and normalized by subtracting no-tracer-control-background. IC50 values were obtained by nonlinear regression using a four-parameter equation in GraphPad Prism 7 (San Diego, CA).

CLK4 = CLK4 (Homo sapiens, UniProt Q9HAZ1); assay: as above; format: cell-based; parameters: host or cells: HEK293 (HEK293T cultured)
Protocol: as §1, §2, §3, §4

RET = RET (Homo sapiens, UniProt P07949); assay: as above; format: cell-based; parameters: host or cells: HEK293 (HEK293T cultured)
Protocol: as §1, §2, §3, §4

CLK2 = CLK2 (Homo sapiens, UniProt P49760); assay: as above; format: cell-based; parameters: host or cells: HEK293 (HEK293T cultured)
Protocol: as §1, §2, §3, §4

STK33 = STK33 (Homo sapiens, UniProt Q9BYT3); assay: as above; format: cell-based; parameters: host or cells: HEK293 (HEK293T cultured)
Protocol: as §1, §2, §3, §4

[1] = Metabolic stability assay in liver microsomes (HLM); format: in vitro ADME, human
Protocol: Metabolic stability assay in liver microsomes. The stabilities of CDD-2110, CDD-2211, CDD-2212, CDD-2807, and CDD-3348 in liver microsomes with/without Uridine Diphosphate Glucuronic Acid (UDP-GA, a cofactor of UDP-glucuronosyltransferases) were performed and half-life was calculated as previously reported (36). Briefly, each CDD compound (2.0 μM) was incubated in the mouse or human liver microsomes (0.5 mg protein/mL) at 37°C in 1× PBS fortified with NADPH (1.0 mM) and with/without UDP-GA (2.5 mM). Alamethicin (25 µg/mL) as a pore forming agent was used for the glucuronidation (Table S2A). The samples were collected at specific time-points 0, 30, and 60 min in duplicate. The reactions were terminated by adding equivalent volume of ice-cold methanol (CH3OH) and vortexed. After centrifugation at 15000 g for 10 min, 3.0 μL of the supernatant was analyzed by Thermo TSQ Quantis MS coupled with a Thermo Vanquish UHPLC (San Jose, CA) equipped with a Luna C18 column (1 mm × 50 mm, 1.6 µm, Phenomenex, Torrance, CA). The column temperature was maintained at 40°C. CDD-2807 was monitored under the selected reaction monitoring (SRM) mode coupled with a positive electrospray ionization (ESI) source. The SRM ion pairs were 447→321 for CDD-2807.

[2] = HEK293 cells, 2 hours incubation

Chain of CLK1 (P49759 whole entry): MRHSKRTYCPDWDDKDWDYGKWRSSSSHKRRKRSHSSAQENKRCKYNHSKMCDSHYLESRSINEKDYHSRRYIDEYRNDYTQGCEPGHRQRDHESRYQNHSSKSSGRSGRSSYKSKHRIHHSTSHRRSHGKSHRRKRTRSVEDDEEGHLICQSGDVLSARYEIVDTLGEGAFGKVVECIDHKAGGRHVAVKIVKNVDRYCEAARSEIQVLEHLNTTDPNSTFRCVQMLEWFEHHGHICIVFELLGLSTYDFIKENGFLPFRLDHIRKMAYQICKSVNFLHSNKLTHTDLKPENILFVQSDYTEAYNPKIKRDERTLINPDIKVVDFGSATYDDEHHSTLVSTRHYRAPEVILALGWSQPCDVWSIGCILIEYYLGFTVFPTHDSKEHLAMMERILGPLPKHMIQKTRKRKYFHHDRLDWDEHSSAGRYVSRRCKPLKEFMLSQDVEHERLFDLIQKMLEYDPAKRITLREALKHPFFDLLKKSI
Chain of RET (P07949 29-1114): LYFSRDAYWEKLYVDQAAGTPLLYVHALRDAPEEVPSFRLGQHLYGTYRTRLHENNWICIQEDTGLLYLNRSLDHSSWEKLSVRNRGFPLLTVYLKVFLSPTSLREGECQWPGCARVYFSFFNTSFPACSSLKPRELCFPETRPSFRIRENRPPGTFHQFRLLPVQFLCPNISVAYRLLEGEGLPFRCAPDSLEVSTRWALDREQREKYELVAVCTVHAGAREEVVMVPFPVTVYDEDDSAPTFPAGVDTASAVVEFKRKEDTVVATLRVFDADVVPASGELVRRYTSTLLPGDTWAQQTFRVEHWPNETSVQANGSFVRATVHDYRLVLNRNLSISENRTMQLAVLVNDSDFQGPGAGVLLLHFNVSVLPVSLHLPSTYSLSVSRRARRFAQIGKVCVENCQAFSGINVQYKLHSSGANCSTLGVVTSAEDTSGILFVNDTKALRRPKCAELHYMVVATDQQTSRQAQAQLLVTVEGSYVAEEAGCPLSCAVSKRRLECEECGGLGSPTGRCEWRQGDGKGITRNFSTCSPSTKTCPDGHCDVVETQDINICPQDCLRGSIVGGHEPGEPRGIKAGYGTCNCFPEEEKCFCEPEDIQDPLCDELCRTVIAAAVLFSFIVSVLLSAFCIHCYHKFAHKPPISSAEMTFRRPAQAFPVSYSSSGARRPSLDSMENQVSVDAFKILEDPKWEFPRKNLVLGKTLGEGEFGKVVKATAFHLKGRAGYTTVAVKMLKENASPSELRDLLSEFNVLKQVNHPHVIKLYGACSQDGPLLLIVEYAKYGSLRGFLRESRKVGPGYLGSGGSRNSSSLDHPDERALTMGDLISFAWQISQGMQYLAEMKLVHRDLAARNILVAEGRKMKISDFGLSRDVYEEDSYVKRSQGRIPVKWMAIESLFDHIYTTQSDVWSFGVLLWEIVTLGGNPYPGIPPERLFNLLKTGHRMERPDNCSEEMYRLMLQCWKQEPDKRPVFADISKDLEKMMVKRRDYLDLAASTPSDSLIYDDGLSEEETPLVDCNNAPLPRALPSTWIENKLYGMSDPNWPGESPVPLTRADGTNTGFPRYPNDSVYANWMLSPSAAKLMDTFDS
Chain of CLK4 (Q9HAZ1 whole entry): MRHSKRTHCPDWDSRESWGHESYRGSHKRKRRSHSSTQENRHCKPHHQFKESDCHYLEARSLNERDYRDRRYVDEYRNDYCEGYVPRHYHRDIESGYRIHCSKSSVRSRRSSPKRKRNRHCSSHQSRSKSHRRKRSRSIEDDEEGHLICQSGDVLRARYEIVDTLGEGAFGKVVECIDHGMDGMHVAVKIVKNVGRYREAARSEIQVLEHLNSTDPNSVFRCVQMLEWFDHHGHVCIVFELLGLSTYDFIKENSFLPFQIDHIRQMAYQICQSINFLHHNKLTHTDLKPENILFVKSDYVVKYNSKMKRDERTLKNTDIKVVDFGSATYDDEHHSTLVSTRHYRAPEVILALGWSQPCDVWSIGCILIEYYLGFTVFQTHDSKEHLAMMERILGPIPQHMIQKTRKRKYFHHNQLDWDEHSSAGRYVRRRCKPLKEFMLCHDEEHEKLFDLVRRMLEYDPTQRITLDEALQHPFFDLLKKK
Chain of STK33 (Q9BYT3 whole entry): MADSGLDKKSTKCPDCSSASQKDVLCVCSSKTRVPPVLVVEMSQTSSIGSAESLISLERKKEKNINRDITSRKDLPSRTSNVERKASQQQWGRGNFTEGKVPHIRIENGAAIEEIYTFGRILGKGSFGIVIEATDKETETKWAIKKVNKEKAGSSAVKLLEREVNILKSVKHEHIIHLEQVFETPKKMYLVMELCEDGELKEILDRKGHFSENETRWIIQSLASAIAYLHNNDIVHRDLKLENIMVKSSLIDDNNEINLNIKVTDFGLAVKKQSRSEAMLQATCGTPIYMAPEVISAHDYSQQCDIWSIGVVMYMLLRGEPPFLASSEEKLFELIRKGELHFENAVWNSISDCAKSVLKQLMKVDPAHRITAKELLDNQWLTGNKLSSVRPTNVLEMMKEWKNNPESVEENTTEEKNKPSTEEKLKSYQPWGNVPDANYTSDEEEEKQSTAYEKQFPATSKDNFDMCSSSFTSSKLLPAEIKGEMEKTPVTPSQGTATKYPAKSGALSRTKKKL
Chain of CLK2 (P49760 whole entry): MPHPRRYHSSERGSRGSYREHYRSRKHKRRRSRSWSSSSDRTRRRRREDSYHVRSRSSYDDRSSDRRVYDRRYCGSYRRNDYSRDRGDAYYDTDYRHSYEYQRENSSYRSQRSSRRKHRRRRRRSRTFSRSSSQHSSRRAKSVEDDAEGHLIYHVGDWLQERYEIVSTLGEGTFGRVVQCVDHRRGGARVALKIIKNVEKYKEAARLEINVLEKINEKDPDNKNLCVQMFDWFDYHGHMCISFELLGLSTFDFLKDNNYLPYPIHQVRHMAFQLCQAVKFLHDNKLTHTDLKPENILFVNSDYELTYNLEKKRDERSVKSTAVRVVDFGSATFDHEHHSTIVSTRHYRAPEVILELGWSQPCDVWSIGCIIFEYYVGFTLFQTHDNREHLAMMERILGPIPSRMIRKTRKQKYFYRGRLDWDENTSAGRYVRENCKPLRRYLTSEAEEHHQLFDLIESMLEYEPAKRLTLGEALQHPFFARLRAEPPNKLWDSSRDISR

Compound: O=C(c1ccc2[nH]nc(C#Cc3ccccc3-c3ccccc3)c2c1)N1CC2(CCCNC2)C1 [CDD-2807]
- IC50 (CLK1; [2]): 116 nM
- Fold NanoBRET IC50 CLK1 over STK33 (in parentheses) (CLK1; selectivity vs STK33): 13 X
- IC50 (CLK4; [2]): 85 nM
- Fold NanoBRET IC50 CLK4 over STK33 (in parentheses) (CLK4; selectivity vs STK33): 9 X
- IC50 (RET; [2]): 363 nM
- Fold NanoBRET IC50 RET over STK33 (in parentheses) (RET; selectivity vs STK33): 39 X
- IC50 (CLK2; [2]): 101 nM
- Fold NanoBRET IC50 CLK2 over STK33 (in parentheses) (CLK2; selectivity vs STK33): 11 X
- selectivity toward STK33 compared to CLK1, CLK2, CLK4, and RET (STK33): > 9 fold
- IC50 (STK33; [2]): 9.2 nM
- Metabolic stability in HLM ([1]; Phase I metabolism): ~ 10 hours
- Metabolic stability in HLM ([1]; Phases I and II metabolism): ~ 6 hours
- half-life at 2 µM ([1]; human, liver microsomes, NADPH with UDP-GA (2.5 mM), alamethicin, read-out: HLM, t1/2, liver microsomes with glucuronidation): 6.47 h
